In patent US9845311B2, “Nrf2 activating compounds and uses thereof” (RIGEL PHARMACEUTICALS, INC., priority 2016, dated 2017):
Counter-ions that a name gives are not always drawn.

Assays:
[1] = system: experimental autoimmune encephalomyelitis (EAE); assay: Experimental autoimmune encephalomyelitis (EAE) animal model; format: in vivo, mice; details: dosed at 60 mg/kg beginning on the day of immunization
[2] = Glutathione depletion assay (Michael addition to reduced glutathione, followed by 1H NMR); format: physicochemical; details: 2 equiv. reduced glutathione, d6-DMSO, 35° C.
Source text: See, for example, Lehmann et al. Dimethyfumarate Induces Immunosuppression via Glutathione Depletion and Subsequent Induction of Heme Oxygenase 1, Journal of Investigative Dermatology (2007) 127, 835-845. Accordingly, the present compounds may be assessed in vitro by reaction with glutathione as follows:
(with the top securely fastened).
In all the above cases, dis-appearance of the alkene proton signals from the starting material are used to determine the extent of Michael reaction with glutathione.
As would be understood by those of skill in the art, the above experiments can be repeated by varying the equivalents of reduced glutathione (0.5 to 2 equivalents); the reactions can also be run in a mixture of d6-DMSO and D2O; and the temperature of the reaction can also be varied from room temperature to 35° C. (35° C. being used to mimic body temperature). As used herein “majority reaction” means a greater than 50% reduction in alkene proton signal as observed by ^1H NMR.

[3] = system: NrF2 (Nuclear factor (erythroid-derived 2)-like 2); assay: NrF2 activation in a whole cell nuclear translocation assay; format: cell-based
Protocol: Compounds are tested in a NrF2 (Nuclear factor (erythroid-derived 2)-like 2) translocation assay by adapting the methods set forth in U.S. Pat. No. 8,101,373, the disclosure of which is incorporated herein by reference. A result of NrF2 activation in the assay by the present compounds is an indication of their anti-inflammatory activity. […] In addition to monomethyl fumarate and dimethyl fumarate, bardoxolone methyl may be used as a positive control.

## COC(=O)/C=C/n1nn[nH]c1=O [methyl (E)-3-(5-oxo-4,5-dihydro-1H-tetrazol-1-yl)acrylate]
[1]
  onset of disease paralysis: significantly prevents the onset of disease paralysis
[2]
  time to majority reaction with glutathione (greater than 50% reduction in alkene proton signal by 1H NMR): ≤ 30 h

## COC(=O)/C=C/C(=O)O [Monomethyl fumarate, monomethylfumarate]
[3]
  EC50: ~127 µM

## COC(=O)/C=C/n1nnn(C)c1=O [methyl (E)-3-(4-methyl-5-oxo-4,5-dihydro-1H-tetrazol-1-yl)acrylate]
[2]
  time to majority reaction with glutathione (greater than 50% reduction in alkene proton signal by 1H NMR): ≤ 30 h
